In US20080319175A1, “Transthyretin Stabilization” (The Scripps Research Institute, priority 2004, published 2008):
“Also recorded” adds a separate entry of the source.

How the values were obtained:
[1] = target: T1, TTR in human blood plasma (Homo sapiens, UniProt P02766); test: blood plasma TTR binding selectivity, antibody capture method; details: inhibitor 10.8 μM
T1 construct: from tissue; host or cells: human blood plasma
Procedure: Inhibitor binding selectivity to TTR in human blood plasma was assessed using a previously established antibody capture method (Purkey, H. E.; et al. Proc. Natl. Acad. Sci. USA 2001, 98, 5566-5571). In this evaluation, inhibitors (10.8 μM, ˜2-3× the natural concentration of TTR) are incubated in human blood plasma for 24 h at 37° C. Quenched sepharose resin is then added to the plasma to remove any small molecules that would bind to the resin as opposed to TTR. TTR and any TTR-bound small molecule is then immunocaptured using a polyclonal TTR antibody covalently attached to sepharose resin. After washing the resin (5×10 min washes), the antibody-TTR complex is dissociated at high pH and analyzed by RP-HPLC. The relative stoichiometry between TTR and inhibitor is then calculated from their HPLC peak areas using standard curves.
(§1) The procedures used for bacterial expression of TTR (Lai, Z.; et al. Biochemistry 1996, 35, 6470-6482), the stagnant fibril formation assay (Colon, W.; Kelly, J. W. Biochemistry 1992, 31, 8654-8660; Lai, Z.; et al. Biochemistry 1996, 35, 6470-6482), the blood plasma binding selectivity assay (Purkey, H. E.; et al. Proc. Natl. Acad. Sci. USA 2001, 98, 5566-5571), and analytical ultracentrifugation (Lashuel, H. A.; et al. Biochemistry 1998, 37, 17851-17864) have all been described in detail previously.
(§2) FIG. 3 is a chart showing a summary of dibenzofuran-based amyloid inhibition activity ([…]) against WT-TTR ([…]) fibril formation (pH 4.4, 72 h) and binding stoichiometry to TTR in human blood plasma. % Fibril formation (f.f.) values in the middle column represent the extent of f.f., and thus inhibitor efficacy, relative to WT-TTR f.f. in the absence of inhibitor (assigned to be 100%). Complete inhibition is equivalent to 0% f.f. The right column depicts the observed stoichiometry of inhibitor (dosed at […], ˜2-3× the concentration of plasma TTR) bound to TTR in blood plasma as determined using the antibody capture method.

[2] = precipitation of small molecule under acid-mediated amyloidogenic conditions in the absence of TTR; type: physicochemical; details: 3.6 μM, pH 4.4, 37° C., 72 h
Procedure: (§3) TTR amyloid inhibition efficacy was probed using a stagnant fibril formation assay described previously, wherein partial denaturation was triggered by acidification (pH 4.4, 37° C.) (Colon, W.; Kelly, J. W. Biochemistry 1992, 31, 8654-8660). Briefly, a test compound (7.2 or 3.6 μM) is incubated with TTR (3.6 μM) for 30 min in pH 7 buffer. Amyloidogenesis is then initiated by lowering to pH 4.4, where maximal fibril formation is observed with WT-TTR after 72 h (37° C.). The turbidity in the presence of a potential inhibitor (Ttest) is compared to that of a solution lacking a test compound (Tcontrol). […] From experience we know that excellent inhibitors allow <10% fibril formation at a small molecule concentration of 7.2 μM and <40% fibril formation at a concentration equal to that of WT-TTR (3.6 μM) (Hammarstrom, P.; et al. Science 2003, 299, 713-716; Klabunde, T.; et al. Nature Struct. Biol. 2000, 7, 312-321; Razavi, H.; et al. Angew Chem 2003, 42, 2758-2761; Miroy, G. J.; et al. Proc. Natl. Acad. Sci. USA 1996, 93, 15051-15056; Peterson, S. A.; et al. Proc. Natl. Acad. Sci. USA 1998, 95, 12956-12960; Baures, P. W.; et al. Bioorg. Med. Chem. 1998, 6, 1389-1401; Baures, P. W.; et al. Bioorg. Med. Chem. 1999, 7, 1339-1347; Petrassi, H. M.; et al. J. Am. Chem. Soc. 2000, 122, 2178-2192; McCammon, M. G.; et al. Structure 2002, 10, 851-863; Oza, V. B.; et al. J. Med. Chem. 2002, 45, 321-332; Sacchettini, J. C.; et al. Nature Rev. Drug Disc. 2002, 1, 267-275; Green, N. S.; et al. J. Am. Chem. Soc. 2003, 125, 13404-13414; Adamski-Werner, S. L.; et al. J. Med. Chem. 2004, 47, 355-374; Miller Sean, R.; et al. Lab. Inv. 2004, 84, 545-552). […] Therefore, when both the ligand and TTR are at equal concentrations, a population of TTR•I, TTR•I2 and unliganded TTR is observed, dictated by the dissociation constants. It is now established by other studies that inhibitor occupancy of only one of the two TTR binding sites is sufficient to stabilize the entire tetramer against amyloidogenesis (Wiseman, R. L.; et al. J. Am. Chem. Soc. 2005, in press). This is further supported by the observation herein that twenty-six of these dibenzofurans are excellent TTR amyloidogenesis inhibitors (<40% fibril formation) at a concentration equal to that of TTR (3.6 μM each, FIG. 3).

[3] = target: T2, WT-TTR (Homo sapiens, UniProt P02766); test: stagnant acid-mediated TTR fibril formation assay (turbidity); type: biochemical; details: WT-TTR 3.6 μM; for inhibitor potency against fibril formation (in words): inhibitor 3.6 μM, pH 4.4, 72 h
T2 construct: made in house
Procedure: as §3, §1
FIG. 2 is a table highlighting the concentration dependent acid-substituted dibenzofuran activity against WT-TTR (3.6 μM) amyloid fibril formation (f.f.) at pH 4.4 (72 h). Values represent the extent of f.f. and thus inhibitor efficacy relative to WT-TTR fibril formation in the absence of inhibitor (assigned to be 100%): complete inhibition is equivalent to 0% f.f.
as §2
FIG. 6 is a chart showing dibenzofuran-based inhibitor activity (7.2 μM) against WT-TTR (3.6 μM) amyloid fibril formation (f.f.) at pH 4.4 (72 h). […]

In the case of `O=C(O)c1cccc2c1oc1c(C(=O)O)cccc12` [Compound 1, dibenzofuran-4,6-dicarboxylic acid, reference compound], the “binding selectivity to TTR in human blood plasma (in words)” value (shortened to “binding selectivity to TTR”) [1] is reported as “no measurable binding selectivity”.
With `O=C(O)c1cccc2c1oc1c(C(=O)O)ccc(Oc3cccc(C(F)(F)F)c3)c12` [Compound 45] the “precipitation of compound in the absence of TTR” value (from here on “precipitation of compound”) [2] was “no measurable precipitation”.
With `O=C(O)c1cccc2c1oc1c(C(=O)O)ccc(Nc3cc(Cl)cc(Cl)c3)c12` [Compound 30] the “precipitation of compound” value [2] was “no measurable precipitation”.
For `O=C(O)c1cccc2c1oc1c(C(=O)O)ccc(Nc3cccc(C(F)(F)F)c3)c12` [Compound 26], the “precipitation of compound” value [2] was “no measurable precipitation”.
In the case of `O=C(O)c1cccc2c1oc1c(C(=O)O)ccc(-c3cc(F)cc(F)c3)c12` [Compound 62], the “precipitation of compound” value [2] is reported as “no measurable precipitation”.
In the case of `O=C(O)c1cccc2c1oc1c(C(=O)O)ccc(Nc3cc(C(F)(F)F)cc(C(F)(F)F)c3)c12` [Compound 31], the “binding selectivity to TTR” value [1] is reported as “all but two (31 and 35) exhibit dramatically increased binding selectivity”.
For `O=C(O)c1cc(Nc2ccc(C(=O)O)c3oc4c(C(=O)O)cccc4c23)cc(C(=O)O)c1` [Compound 34], the “inhibitor potency against fibril formation (in words)” value (“inhibitor potency” below) [3] was “all the inhibitors (except 34) display increased potency relative to the parent compound (1)” and the “inhibition of WT-TTR fibril formation at 7.2 μM inhibitor (in words)” value ([3]; inhibitor 7.2 μM, pH 4.4, 37° C., 72 h) was “not as effective; also recorded: all but one (34) completely inhibit fibril formation”.
With `O=C(O)c1cccc2c1oc1c(C(=O)O)ccc(Nc3ccccc3F)c12` [Compound 36] the “inhibitor potency” value [3] was “most potent”.
For `O=C(O)c1ccc(Nc2ccc(C(=O)O)c3oc4c(C(=O)O)cccc4c23)cc1` [Compound 35], the “binding selectivity to TTR” value [1] was “all but two (31 and 35) exhibit dramatically increased binding selectivity”.
In the case of `O=C(O)c1cccc2c1oc1c(C(=O)O)ccc(-c3cc(Cl)cc(Cl)c3)c12` [Compound 63], the “inhibitor potency” value [3] is reported as “most potent”.
With `O=C(O)c1cccc2c1oc1c(C(=O)O)ccc(-c3ccccc3F)c12` [Compound 67] the “inhibitor potency” value [3] was “most potent”.
For `O=C(O)c1cccc2c1oc1c(C(=O)O)ccc(Nc3cccc(Cl)c3)c12` [Compound 27], the “precipitation of compound” value [2] was “no measurable precipitation”.
With `O=C(O)c1cccc(Nc2ccc(C(=O)O)c3oc4c(C(=O)O)cccc4c23)c1` [Compound 33] the “inhibitor potency” value [3] was “amongst the most potent” and the “binding selectivity to TTR” value [1] was “modest”.
With `O=C(O)c1cccc(-c2ccc(C(=O)O)c3oc4c(C(=O)O)cccc4c23)c1` [Compound 69] the “inhibitor potency” value [3] was “amongst the most potent” and the “binding selectivity to TTR” value [1] was “modest”.
